Assay results taken from patent publication US9902702B2, “Spirocycloheptanes as inhibitors of rock” (BRISTOL-MYERS SQUIBB COMPANY, priority 2014, dated 2018).

What follows are compounds tested against ROCK2 (Homo sapiens, UniProt O75116) (assay: ROCK assay: phosphorylation of FITC peptide substrate, LABCHIP 3000 mobility shift). Settings: 5 μM ATP, 1.5 μM peptide substrate; read-out: ROCK2 Activity (ROCK IC50 range).
Format: biochemical
Method in brief: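 IC50 values come from curve-fitting percent kinase inhibition across a compound dilution series. The reaction is started with Rho kinase variant in HEPES pH 7.5 buffer with MgCl2, Brij-35 and DTT, with 5 μM ATP, 1.5 μM FITC-labelled peptide and under 2% DMSO. After EDTA quench, product and substrate are separated by microfluidic mobility shift.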

Chain of ROCK2 (O75116 whole entry, species assumed): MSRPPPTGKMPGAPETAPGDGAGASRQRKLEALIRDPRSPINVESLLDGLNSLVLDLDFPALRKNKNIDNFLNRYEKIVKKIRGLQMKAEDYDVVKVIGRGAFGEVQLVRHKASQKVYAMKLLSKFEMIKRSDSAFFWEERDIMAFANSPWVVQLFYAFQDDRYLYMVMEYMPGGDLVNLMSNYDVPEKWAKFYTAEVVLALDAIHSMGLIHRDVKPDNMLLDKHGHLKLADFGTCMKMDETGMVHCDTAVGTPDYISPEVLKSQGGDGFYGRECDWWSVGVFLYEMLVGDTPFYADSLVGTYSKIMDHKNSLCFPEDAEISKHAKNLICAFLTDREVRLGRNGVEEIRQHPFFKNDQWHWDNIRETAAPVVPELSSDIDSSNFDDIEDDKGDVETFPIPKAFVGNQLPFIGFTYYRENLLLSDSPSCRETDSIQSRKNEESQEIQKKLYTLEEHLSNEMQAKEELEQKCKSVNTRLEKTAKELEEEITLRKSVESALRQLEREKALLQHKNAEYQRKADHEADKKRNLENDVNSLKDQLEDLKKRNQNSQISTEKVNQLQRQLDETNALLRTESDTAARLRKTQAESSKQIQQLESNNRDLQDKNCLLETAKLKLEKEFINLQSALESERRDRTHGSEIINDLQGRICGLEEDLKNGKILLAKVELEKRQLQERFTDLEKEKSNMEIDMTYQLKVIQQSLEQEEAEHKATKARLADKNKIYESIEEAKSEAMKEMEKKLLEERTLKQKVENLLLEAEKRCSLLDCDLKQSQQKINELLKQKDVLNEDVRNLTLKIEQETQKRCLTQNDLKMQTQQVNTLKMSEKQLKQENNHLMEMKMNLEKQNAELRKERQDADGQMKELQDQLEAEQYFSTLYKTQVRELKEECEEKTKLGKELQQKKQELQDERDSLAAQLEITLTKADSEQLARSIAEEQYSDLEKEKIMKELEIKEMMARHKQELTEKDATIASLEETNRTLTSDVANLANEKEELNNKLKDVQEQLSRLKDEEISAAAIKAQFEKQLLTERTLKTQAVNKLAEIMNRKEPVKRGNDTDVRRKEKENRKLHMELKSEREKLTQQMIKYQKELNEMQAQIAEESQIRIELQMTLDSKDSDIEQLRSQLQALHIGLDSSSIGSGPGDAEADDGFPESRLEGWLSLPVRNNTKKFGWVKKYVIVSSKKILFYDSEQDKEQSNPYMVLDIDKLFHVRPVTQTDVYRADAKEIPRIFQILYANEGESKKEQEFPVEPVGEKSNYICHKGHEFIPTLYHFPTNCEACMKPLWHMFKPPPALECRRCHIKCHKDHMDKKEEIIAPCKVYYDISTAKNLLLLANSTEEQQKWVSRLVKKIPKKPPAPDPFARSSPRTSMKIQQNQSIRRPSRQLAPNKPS

IC50 [nM] | SMILES
15.1 to 100 | O=C(NC1CC2(C1)CC(c1n[nH]c(=O)c3ccccc13)C2)c1cnn2ccc(OCCO)cc12 [Example 77, 5-(2-hydroxyethoxy)-N-((aR)-6-(4-oxo-3,4-dihydrophthalazin-1-yl)spiro[3.3]heptan-2-yl)pyrazolo[1,5-a]pyridine-3-carboxamide]
5.1 to 15 | O=C(NC1CC2(C1)CC(c1n[nH]c(=O)c3ccccc13)C2)c1onc2ccccc12 [Example 78, N-((aR)-6-(4-oxo-3,4-dihydrophthalazin-1-yl)spiro[3.3]heptan-2-yl)benzo[c]isoxazole-3-carboxamide]
2.01 to 5 | O=C(NC1CC2(C1)CC(c1n[nH]c(=O)c3ccccc13)C2)c1cnn2cc(OC(F)F)ccc12 [Example 79, 6-(difluoromethoxy)-N-((aR)-6-(4-oxo-3,4-dihydrophthalazin-1-yl)spiro[3.3]heptan-2-yl)pyrazolo[1,5-a]pyridine-3-carboxamide]
0.2 to 2 | O=C(NC1CC2(C1)CC(c1n[nH]c(=O)c3ccccc13)C2)c1cnn2cc(OCC(F)F)ccc12 [Example 80, 6-(2,2-difluoroethoxy)-N-((aR)-6-(4-oxo-3,4-dihydrophthalazin-1-yl)spiro[3.3]heptan-2-yl)pyrazolo[1,5-a]pyridine-3-carboxamide]
0.2 to 2 | O=C(NC1CC2(C1)CC(c1n[nH]c(=O)c3ccccc13)C2)c1cnn2cc(OCCn3cccn3)ccc12 [Example 81, 6-(2-(1H-pyrazol-1-yl)ethoxy)-N-((aR)-6-(4-oxo-3,4-dihydrophthalazin-1-yl)spiro[3.3]heptan-2-yl)pyrazolo[1,5-a]pyridine-3-carboxamide]
2.01 to 5 | O=C(NC1CC2(C1)CC(c1n[nH]c(=O)c3ccccc13)C2)c1cnn2cc(N3CCC(F)(F)CC3)ccc12 [Example 82, 6-(4,4-difluoropiperidin-1-yl)-N-((aR)-6-(4-oxo-3,4-dihydrophthalazin-1-yl)spiro[3.3]heptan-2-yl)pyrazolo[1,5-a]pyridine-3-carboxamide]
0.2 to 2 | O=C(NC1CC2(C1)CC(c1n[nH]c(=O)c3ccccc13)C2)c1cnn2cc(OCCN3CCCC3)ccc12 [Example 83, N-((aR)-6-(4-oxo-3,4-dihydrophthalazin-1-yl)spiro[3.3]heptan-2-yl)-6-(2-(pyrrolidin-1-yl)ethoxy)pyrazolo[1,5-a]pyridine-3-carboxamide]
5.1 to 15 | O=C(NC1CC2(C1)CC(c1n[nH]c(=O)c3ccccc13)C2)c1cnn2ccc(N3CCOCC3)cc12 [Example 84, 5-morpholino-N-((aR)-6-(4-oxo-3,4-dihydrophthalazin-1-yl)spiro[3.3]heptan-2-yl)pyrazolo[1,5-a]pyridine-3-carboxamide]
2.01 to 5 | Cn1cc(-c2ccn3ncc(C(=O)NC4CC5(C4)CC(c4n[nH]c(=O)c6ccccc46)C5)c3c2)cn1 [Example 85, 5-(1-methyl-1H-pyrazol-4-yl)-N-((aR)-6-(4-oxo-3,4-dihydrophthalazin-1-yl)spiro[3.3]heptan-2-yl)pyrazolo[1,5-a]pyridine-3-carboxamide]
0.2 to 2 | CN1CCN(c2ccc3c(C(=O)NC4CC5(C4)CC(c4n[nH]c(=O)c6ccccc46)C5)cnn3c2)CC1 [Example 86, 6-(4-methylpiperazin-1-yl)-N-((aR)-6-(4-oxo-3,4-dihydrophthalazin-1-yl)spiro[3.3]heptan-2-yl)pyrazolo[1,5-a]pyridine-3-carboxamide]
0.2 to 2 | O=C(NC1CC2(C1)CC(c1n[nH]c(=O)c3ccccc13)C2)c1cnn2cc(N3CCCC3)ccc12 [Example 87, N-((aR)-6-(4-oxo-3,4-dihydrophthalazin-1-yl)spiro[3.3]heptan-2-yl)-6-(pyrrolidin-1-yl)pyrazolo[1,5-a]pyridine-3-carboxamide]
0.2 to 2 | O=C(NC1CC2(C1)CC(c1n[nH]c(=O)c3ccccc13)C2)c1cnn2cc(N3CCC(F)C3)ccc12 [Example 88, 6-((R)-3-fluoropyrrolidin-1-yl)-N-((aR)-6-(4-oxo-3,4-dihydrophthalazin-1-yl)spiro[3.3]heptan-2-yl)pyrazolo[1,5-a]pyridine-3-carboxamide]
0.2 to 2 | O=C(NC1CC2(C1)CC(c1n[nH]c(=O)c3ccccc13)C2)c1cnn2cc(N3CCC(F)C3)ccc12 [Example 89, 6-((S)-3-fluoropyrrolidin-1-yl)-N-((aR)-6-(4-oxo-3,4-dihydrophthalazin-1-yl)spiro[3.3]heptan-2-yl)pyrazolo[1,5-a]pyridine-3-carboxamide]
0.2 to 2 | O=C(NC1CC2(C1)CC(c1n[nH]c(=O)c3ccccc13)C2)c1cnn2cc(N3CCC(F)(F)C3)ccc12 [Example 90, 6-(3,3-difluoropyrrolidin-1-yl)-N-((aR)-6-(4-oxo-3,4-dihydrophthalazin-1-yl)spiro[3.3]heptan-2-yl)pyrazolo[1,5-a]pyridine-3-carboxamide]
0.2 to 2 | O=C(NC1CC2(C1)CC(c1n[nH]c(=O)c3ccccc13)C2)c1cnn2cc(N3CC(F)C3)ccc12 [Example 91, 6-(3-fluoroazetidin-1-yl)-N-((aR)-6-(4-oxo-3,4-dihydrophthalazin-1-yl)spiro[3.3]heptan-2-yl)pyrazolo[1,5-a]pyridine-3-carboxamide]
0.2 to 2 | O=C(NC1CC2(C1)CC(c1n[nH]c(=O)c3ccccc13)C2)c1cnn2cc(N3CC(F)(F)C3)ccc12 [Example 92, 6-(3,3-difluoroazetidin-1-yl)-N-((aR)-6-(4-oxo-3,4-dihydrophthalazin-1-yl)spiro[3.3]heptan-2-yl)pyrazolo[1,5-a]pyridine-3-carboxamide]
2.01 to 5 | O=C(NC1CC2(C1)CC(c1n[nH]c(=O)c3ccccc13)C2)c1cn2c(n1)sc1ccccc12 [Example 93, N-((aR)-6-(4-oxo-3,4-dihydrophthalazin-1-yl)spiro[3.3]heptan-2-yl)benzo[d]imidazo[2,1-b]thiazole-2-carboxamide]
5.1 to 15 | O=C(NC1CC2(C1)CC(c1n[nH]c(=O)c3ccccc13)C2)c1cn2c(n1)sc1ccccc12 [Example 94, N-((aR)-6-(4-oxo-3,4-dihydrophthalazin-1-yl)spiro[3.3]heptan-2-yl)benzo[d]imidazo[2,1-b]thiazole-2-carboxamide]
5.1 to 15 | CCc1nn2cc(C(=O)NC3CC4(C3)CC(c3n[nH]c(=O)c5ccccc35)C4)nc2s1 [Example 95, 2-ethyl-N-((aR)-6-(4-oxo-3,4-dihydrophthalazin-1-yl)spiro[3.3]heptan-2-yl)imidazo[2,1-b][1,3,4]thiadiazole-6-carboxamide]
15.1 to 100 | O=C(NC1CC2(C1)CC(c1n[nH]c(=O)c3ccccc13)C2)c1cnn2ncccc12 [Example 96, N-((aR)-6-(4-oxo-3,4-dihydrophthalazin-1-yl)spiro[3.3]heptan-2-yl)pyrazolo[1,5-b]pyridazine-3-carboxamide]
0.2 to 2 | CC(C)(O)COc1ccc2c(C(=O)NC3CC4(C3)CC(c3n[nH]c(=O)c5ccccc35)C4)cnn2c1C1CC1 [Example 97, 7-cyclopropyl-6-(2-hydroxy-2-methylpropoxy)-N-((aR)-6-(4-oxo-3,4-dihydrophthalazin-1-yl)spiro[3.3]heptan-2-yl)pyrazolo[1,5-a]pyridine-3-carboxamide]
2.01 to 5 | O=C(NC1CC2(C1)CC(c1n[nH]c(=O)c3ccccc13)C2)c1cnn2cc(OCC(O)(C(F)(F)F)C(F)(F)F)ccc12 [Example 98, N-((aR)-6-(4-oxo-3,4-dihydrophthalazin-1-yl)spiro[3.3]heptan-2-yl)-6-(3,3,3-trifluoro-2-hydroxy-2-(trifluoromethyl)propoxy)pyrazolo[1,5-a]pyridine-3-carboxamide]
0.2 to 2 | O=C(NC1CC2(C1)CC(c1n[nH]c(=O)c3ccccc13)C2)c1cnn2cc(OCc3ccccc3)ccc12 [Example 99, 6-(benzyloxy)-N-((aR)-6-(4-oxo-3,4-dihydrophthalazin-1-yl)spiro[3.3]heptan-2-yl)pyrazolo[1,5-a]pyridine-3-carboxamide]
100 to 2100 | O=C(NC1CC2(C1)CC(c1n[nH]c(=O)c3ccccc13)C2)c1ccnn1CC(F)F [Example 100, 1-(2,2-difluoroethyl)-N-((aR)-6-(4-oxo-3,4-dihydrophthalazin-1-yl)spiro[3.3]heptan-2-yl)-1H-pyrazole-5-carboxamide]
15.1 to 100 | O=C(NC1CC2(C1)CC(c1n[nH]c(=O)c3ccccc13)C2)c1ccnn1CCC(F)(F)F [Example 101, N-((aR)-6-(4-oxo-3,4-dihydrophthalazin-1-yl)spiro[3.3]heptan-2-yl)-1-(3,3,3-trifluoropropyl)-1H-pyrazole-5-carboxamide]
5.1 to 15 | COc1ccc(Cn2cc(C(=O)NC3CC4(C3)CC(c3n[nH]c(=O)c5ccccc35)C4)cn2)cc1 [Example 102, 1-(4-methoxybenzyl)-N-((aR)-6-(4-oxo-3,4-dihydrophthalazin-1-yl)spiro[3.3]heptan-2-yl)-1H-pyrazole-4-carboxamide]
15.1 to 100 | O=C(NC1CC2(C1)CC(c1n[nH]c(=O)c3ccccc13)C2)c1ccnn1CC1CC1 [Example 103, 1-(cyclopropylmethyl)-N-((aR)-6-(4-oxo-3,4-dihydrophthalazin-1-yl)spiro[3.3]heptan-2-yl)-1H-pyrazole-5-carboxamide]
100 to 2100 | O=C(NC1CC2(C1)CC(c1n[nH]c(=O)c3ccccc13)C2)c1ccnn1C1CCOCC1 [Example 104, N-((aR)-6-(4-oxo-3,4-dihydrophthalazin-1-yl)spiro[3.3]heptan-2-yl)-1-(tetrahydro-2H-pyran-4-yl)-1H-pyrazole-5-carboxamide]
0.2 to 2 | O=C(NC1CC2(C1)CC(c1n[nH]c(=O)c3ccccc13)C2)c1cnn2cc(OC3CCOC3)ccc12 [Example 105, N-((aR)-6-(4-oxo-3,4-dihydrophthalazin-1-yl)spiro[3.3]heptan-2-yl)-6-((tetrahydrofuran-3-yl)oxy)pyrazolo[1,5-a]pyridine-3-carboxamide]
100 to 2100 | CC(C)(C)OC(=O)NCCn1cc(C(=O)NC2CC3(C2)CC(c2n[nH]c(=O)c4ccccc24)C3)cn1 [Example 106, tert-butyl (2-(4-(((aR)-6-(4-oxo-3,4-dihydrophthalazin-1-yl)spiro[3.3]heptan-2-yl)carbamoyl)-1H-pyrazol-1-yl)ethyl)carbamate]
